Measurements published in patent publication US5837548A, “Treatment of inflammation by inhibition of lipid body formation” (Beth Israel Hospital, priority 1995, dated 1998).
Structures can show the parent of a compound that is named as a salt. Where two headings read alike, the source gives them in different places.

How the values were obtained:
human neutrophils [1] = conditions: cited from earlier work
human eosinophils = conditions: receptor-mediated; cited from earlier work
human neutrophils [2] = assay: cis-unsaturated fatty acid-induced lipid body formation in human neutrophils (osmium staining, light microscopy enumeration); format: cell-based; conditions: for inhibition at 1 µM / inhibition at 10 µM / inhibition at 1 µg/mL / inhibition at 10 µg/mL / inhibition at 5 µM / inhibition at 0.5 µM: Homo sapiens, Neutrophil, basal subtracted; for inhibition at 1 µM / inhibition at 10 µM: read-out: % inhibition; for inhibition at 1 µg/mL / inhibition at 10 µg/mL: 1 h; for inhibition of arachidonic acid-induced lipid body formation / inhibition of oleic acid-induced lipid body formation: human neutrophils, staurosporine 0.1-1.0 μM, aspirin 10 μg/mL, others as in Tables 1 and 2
Method: Neutrophils were purified from fresh human blood obtained by venipuncture from healthy adult volunteers and collected into acidified citrate. After addition of 6% dextran 70 (McGaw, Irvine, Calif.), RBCs were allowed to sediment for 1 hour at room temperature. The leukocyte-rich supernatant was overlaid onto an equal volume of Ficoll-Paque gradient (Piscataway, N.J.), and centrifuged at 400×g for 20 min. […] Residual RBCs were lysed with hypotonic saline.
Human leukocytes (10^6 cells/mL) were incubated with varying concentrations of arachidonic acid (AA), oleic acid (OA) or vehicle at 37° C. in a 5% CO2 /95% O2 atmosphere, and after 1 hour leukocytes (10^5 cells per slide) were cytocentrifuged (550 rpm, 5 min) onto glass slides. During inhibitory studies, neutrophils were pretreated for 1 hour with varying concentrations of enzyme inhibitors, protein synthesis inhibitors, or vehicle as indicated. When PKC inhibitors were used, the pre-incubation time was reduced to 30 minutes to avoid toxic effects to the cells. […] Stock solutions for A23187, D609, U-73122, and indomethacin were prepared in DMSO and stored at -20° C. Aliquots were diluted in Ca^++ /Mg^++ fee HBSS to the indicated concentration immediately prior to use. […] The morphology of fixed cells was observed, and lipid bodies were enumerated with phase contrast microscopy and a 100× objective lens in 50 consecutively scanned leukocytes.
Results were expressed as mean±SEM and were analyzed statistically by means of the analysis of variance followed by the Newman-Keuls-Student test with the level of significance set at p<0.05. Correlation coefficients were determined by linear regression, and correlation analysis was performed by Fisher's r to z transformation with the level of significance set at p<0.05.
^1 Neutrophils (10^6 /ml) were pretreated with protein kinase C
(actinomycin D, cycloheximide) for 30 min or with phospholipase C
inhibitors (D609, U73122) for 1 h. The cells were then stimulated with
vehicle, arachidonic acid (15 μM), or oleic acid (10 μM), for 1 h.
Results are mean ± SEM from fifty consecutively counted neutrophils.
Statistically significant differences between the agonist alone and the
inhibitor are represented by an asterisk(*). Percent inhibition has been
calculated after subtracting out the basal number of lipid bodies/PMN
present prior to stimulation.
^1 Neutrophils (10^6 /ml) were pretreated with the NSAID or
vehicle for 1 h then stimulated with vehicle, arachidonic acid, or oleic
± SEM from fifty consecutively counted neutrophils. Statistically
significant differences between the agonist alone and the NSAID are
represented by an asterisk (*). Percent inhibition has been calculated
after subtracting out the basal number of lipid bodies/PMN present prior

[3] = system: peritoneal macrophages from wild type mice; assay: lipid body formation in peritoneal macrophages from wild type mice; format: cell-based, mouse; conditions: for % inhibition / lipid bodies (mean ± SEM)/macrophage: wild type, AA 15 μM; for inhibition of lipid body formation in macrophages: wild-type mice, 10 μg/mL
Method: (§1) FIG. 4 is a graph illustrating the effects of arachidonic acid and oleic acid on lipid body formation in peritoneal macrophages from wild type (+/+) and cyclooxygenase-1 knockout (-/-) mice. The agonists AA and OA are represented by the square and circle symbols, respectively. The closed symbols represent the wild type mice; the open symbols represent the cyclooxygenase-1 knockout mice. Macrophages (10^6 /mL) were incubated with the agonists AA and OA at varying concentrations for an hour. Lipid bodies were enumerated using light microscopy following osmium staining. Each point represents the mean±SEM from fifty consecutively scanned macrophages.
(§2) Cyclooxygenase-1 and cyclooxygenase-2 knockout mice were generated as recently described (Morham et al., Cell 83:473-482 (1995); Langenbach et al., Cell 83:483-492 (1995)). All experiments were carried out with male 8-12 week old mice. Macrophages from cyclooxygenase genetically deficient mice and wild-type litter mates were obtained by lavaging the peritoneal cavity with 5 mL of cold RPMI containing heparin (20 IU/mL).
(§3) ^1 Peritoneal macrophages from wild type and COX 1 knockout mice were
(§4) pretreated with the NSAID or vehicle for 1h and then stimulated with
(§5) arachidonic acid (AA, 15 μM) or vehicle for 1h. Results are mean ±
(§6) SEM from fifty consecutively counted macrophages. The statistically

[4] = system: peritoneal macrophages from COX 1 knockout mice; assay: lipid body formation in peritoneal macrophages from cyclooxygenase-1 knockout mice; format: cell-based, mouse; conditions: for % inhibition / lipid bodies (mean ± SEM)/macrophage: COX 1 knockout, AA 15 μM; for inhibition of lipid body formation in macrophages: cyclooxygenase-1-deficient mice, 10 μg/mL
Method: as §1, §2, §3, §4, §5, §6

[5] = system: neutrophils (arachidonic acid uptake); assay: 14C-arachidonic acid uptake in arachidonic acid-stimulated neutrophils; format: cell-based, human; conditions: for inhibition of 14C-arachidonic acid uptake: arachidonic acid-stimulated cells, aspirin 10 μg/mL, sodium salicylate 10 μg/mL, indomethacin 1 μg/mL; for 14C-AA uptake: stimulus arachidonate 15 μM, drug 1 μg/ml (table footnote)
Method: Neutrophils (10^6 /mL) were labeled with ^14 C-arachidonic acid (0.01 μCi/sample) together with either vehicle, aspirin (10 μg/mL), indomethacin (1 μg/mL) or sodium salicylate (10 μg/mL) for 1 hour. After the incubation period, lipid body formation was elicited by arachidonic acid (15 μM). The cells were washed 3 times in Ca^++ /Mg^++ free HBSS and analysis of incorporated ^14 C-arachidonic acid in the cell pellet was performed by liquid scintillation counting.
^1 The cells were pretreated with ^14 Carachidonic acid (0.01
μCi/sample) plus vehicle, aspirin (10 μg/ml) , sodium salicylate (1
μg/ml) or indomethacin (1 μg/ml) 1 h before the incubation with
arachidonic acid (15 μM). Cells were washed 3 times before the analysi
of incorporated ^14 Carachidonic acid. Results are representative of
independent experiments.

[6] = arachidonic acid 15 μM, inhibitor 1 μM
[7] = arachidonic acid 15 μM, inhibitor 10 μM
[8] = oleic acid 10 μM, inhibitor 1 μM
[9] = oleic acid 10 μM, inhibitor 10 μM
[10] = arachidonic acid 15 μM, NSAID 1 μg/ml, 1 h pretreatment
[11] = oleic acid 10 μM, NSAID 1 μg/ml, 1 h pretreatment
[12] = oleic acid 10 μM, NSAID 10 μg/ml, 1 h pretreatment
[13] = arachidonic acid 15 μM, NSAID 10 μg/ml, 1 h pretreatment
[14] = arachidonic acid 15 μM, inhibitor 5 μM
[15] = oleic acid 10 μM, inhibitor 5 μM
[16] = arachidonic acid 15 μM, inhibitor 0.5 μM
[17] = oleic acid 10 μM, inhibitor 0.5 μM

## CCCCCCCCCCCCCCCCOCC(COP(=O)([O-])OCC[N+](C)(C)C)OC(C)=O (stereo not drawn) [platelet activating factor]
Human neutrophils [1]
  induction of lipid body formation: Lipid body formation is also induced
Human neutrophils [1]; listed as PAF
  induction of lipid body formation: elicit lipid body formation
Human eosinophils
  induction of lipid body formation: elicit lipid body formation

## CCCCC[C@H](O)/C=C/C=C\C/C=C\C/C=C\CCCC(=O)O [15-HETE]
Human neutrophils [1]
  induction of lipid body formation: elicit lipid body formation
Human eosinophils
  induction of lipid body formation: elicit lipid body formation

## S=C(S)OC1CC2CC1C1CCCC21 (stereo not drawn) [D609]
Human neutrophils [2]; [6]
  inhibition at 1 µM: 48%
  lipid bodies (mean ± SEM)/cell: 6.5 ± 0.2 lipid bodies/cell
Human neutrophils [2]; [7]
  inhibition at 10 µM: 84%
  lipid bodies (mean ± SEM)/cell: 5.2 ± 0.2 lipid bodies/cell
Human neutrophils [2]; [8]
  inhibition at 1 µM: 19%
  lipid bodies (mean ± SEM)/cell: 9.4 ± 0.3 lipid bodies/cell
Human neutrophils [2]; [9]
  inhibition at 10 µM: 46%
  lipid bodies (mean ± SEM)/cell: 7.8 ± 0.2 lipid bodies/cell

## COc1ccc2c(c1)c(CC(=O)O)c(C)n2C(=O)c1ccc(Cl)cc1 [indomethacin]
[3]; NSAID 1 μg/ml
  % inhibition: 61%
  lipid bodies (mean ± SEM)/macrophage: 4.4 ± 0.3 lipid bodies/macrophage
[3]
  inhibition of lipid body formation in macrophages: significantly inhibited
[4]; NSAID 1 μg/ml
  % inhibition: 48%
  lipid bodies (mean ± SEM)/macrophage: 4.8 ± 0.4 lipid bodies/macrophage
[4]
  inhibition of lipid body formation in macrophages: significantly inhibited
Human neutrophils [2]; [10]
  inhibition at 1 µg/mL: 63%
  lipid bodies (mean ± SEM) PMN: 7.0 ± 0.5 lipid bodies/PMN
Human neutrophils [2]; [11]
  inhibition at 1 µg/mL: 61%
  lipid bodies (mean ± SEM) PMN: 9.1 ± 0.5 lipid bodies/PMN
Human neutrophils [2]
  inhibition of arachidonic acid-induced lipid body formation: significantly inhibited
  inhibition of oleic acid-induced lipid body formation: significantly inhibited
[5]
  inhibition of 14C-arachidonic acid uptake: failed to inhibit
  14C-AA uptake: 7095 cpm

## O=C(O)c1ccccc1O [Na salicylate, salicylic acid (sodium salt)]
[3]; NSAID 10 μg/ml
  % inhibition: 45%
  lipid bodies (mean ± SEM)/macrophage: 5.0 ± 0.3 lipid bodies/macrophage
[3]
  inhibition of lipid body formation in macrophages: significantly inhibited
[4]; NSAID 10 μg/ml
  % inhibition: 66%
  lipid bodies (mean ± SEM)/macrophage: 4.0 ± 0.4 lipid bodies/macrophage
[4]
  inhibition of lipid body formation in macrophages: significantly inhibited
Human neutrophils [2]; [12]
  inhibition at 10 µM: 53%
  lipid bodies (mean ± SEM) PMN: 10.1 ± 0.4 lipid bodies/PMN
Human neutrophils [2]; [13]
  lipid bodies (mean ± SEM) PMN: 7.9 ± 0.4 lipid bodies/PMN
Human neutrophils [2]
  inhibition of arachidonic acid-induced lipid body formation: significantly inhibited
  inhibition of oleic acid-induced lipid body formation: significantly inhibited
[5]
  inhibition of 14C-arachidonic acid uptake: failed to inhibit
  14C-AA uptake: 7292 cpm

## CN1C(C(=O)Nc2ccccn2)=C(O)c2ccccc2S1(=O)=O [piroxicam]
Human neutrophils [2]; [13]
  inhibition at 10 µg/mL: 61%
  lipid bodies (mean ± SEM) PMN: 7.2 ± 0.4 lipid bodies/PMN
Human neutrophils [2]; [12]
  inhibition at 10 µg/mL: 50%
  lipid bodies (mean ± SEM) PMN: 10.4 ± 0.4 lipid bodies/PMN
Human neutrophils [2]
  inhibition of arachidonic acid-induced lipid body formation: significantly inhibited
  inhibition of oleic acid-induced lipid body formation: significantly inhibited

## CCCCCC=CCC=CCC=CC=CC(O)CCCC(=O)O (stereo not drawn) [5-HETE, 5-hydroxy-6,8,11,14-eicosatetraenoic acid]
Human neutrophils [1]
  induction of lipid body formation: elicit lipid body formation
Human eosinophils
  induction of lipid body formation: elicit lipid body formation

## CCCCCCCCCCCCCC(=O)O[C@@H]1[C@@H](C)[C@@]2(O)[C@@H](C=C(CO)C[C@]3(O)C(=O)C(C)=C[C@@H]23)[C@@H]2C(C)(C)[C@]12OC(C)=O [phorbol-12-myristate-13-acetate]
Human neutrophils [1]
  induction of lipid body formation: induce lipid body formation

## COc1ccc2c(c1)CC[C@@H]1[C@@H]2CC[C@]2(C)[C@@H](NCCCCCCN3C(=O)C=CC3=O)CC[C@@H]12 [U-73122]
Human neutrophils [2]; [6]
  inhibition at 1 µM: 45%
  lipid bodies (mean ± SEM)/cell: 6.6 ± 0.2 lipid bodies/cell
Human neutrophils [2]; [14]
  inhibition at 5 µM: 85%
  lipid bodies (mean ± SEM)/cell: 4.9 ± 0.2 lipid bodies/cell
Human neutrophils [2]; [8]
  inhibition at 1 µM: 8%
  lipid bodies (mean ± SEM)/cell: 19.3 ± 0.4 lipid bodies/cell
Human neutrophils [2]; [15]
  inhibition at 5 µM: 24%
  lipid bodies (mean ± SEM)/cell: 16.9 ± 0.4 lipid bodies/cell

## COc1ccc2c(c[n+](C)c3c4cc5c(cc4ccc23)OCO5)c1OC [chelerythrine]
Human neutrophils [2]; [16]
  inhibition at 0.5 µM: 50%
  lipid bodies (mean ± SEM)/cell: 7.5 ± 0.3 lipid bodies/cell
Human neutrophils [2]; [6]
  inhibition at 1 µM: 90%
  lipid bodies (mean ± SEM)/cell: 5.1 ± 0.3 lipid bodies/cell
Human neutrophils [2]; [17]
  inhibition at 0.5 µM: 25%
  lipid bodies (mean ± SEM)/cell: 7.5 ± 0.2 lipid bodies/cell
Human neutrophils [2]; [8]
  inhibition at 1 µM: 71%
  lipid bodies (mean ± SEM)/cell: 5.8 ± 0.3 lipid bodies/cell

## CN[C@@H]1C[C@H]2O[C@@](C)([C@@H]1OC)n1c3ccccc3c3c4c(c5c6ccccc6n2c5c31)C(=O)NC4 [staurosporine]
Human neutrophils [2]; arachidonic acid 15 μM, inhibitor 0.1 μM
  lipid bodies (mean ± SEM)/cell: 6.1 ± 0.3 lipid bodies/cell
Human neutrophils [2]; [6]
  lipid bodies (mean ± SEM)/cell: 5.1 ± 0.2 lipid bodies/cell
Human neutrophils [2]; oleic acid 10 μM, inhibitor 0.1 μM
  lipid bodies (mean ± SEM)/cell: 8.3 ± 0.3 lipid bodies/cell
Human neutrophils [2]; [8]
  lipid bodies (mean ± SEM)/cell: 7.7 ± 0.3 lipid bodies/cell

## CCCCC/C=C\C[C@H](O)/C=C/C=C\C/C=C\CCCC(=O)O [12-HETE]
Human neutrophils [1]
  induction of lipid body formation: elicit lipid body formation
Human eosinophils
  induction of lipid body formation: elicit lipid body formation

## CCCCCCCC/C=C\CCCCCCCC(=O)OCC(CO)OC(C)=O (racemic)
Human neutrophils [1]
  induction of lipid body formation: induce lipid body formation
